From PMC9612231, “Antileishmanial Anthracene Endoperoxides: Efficacy In Vitro, Mechanisms and Structure-Activity Relationships” (Molecules, 2022) come the findings set out here.

Tested on in the first experiment: not listed separately
As to the kind of experiment: Formation of the xylenol orange/Fe3+ complex by EP. To be noted: AcEP and 250 µM FeSO4 in methanol/H2O (9:1). The source says: In subsequent experiments, we explored the activation of EP and possible cellular consequences of these compounds in Leishmania. In a chemical system, we tested how fast EP react with iron (II) and, therefore, lead to the activation of these compounds. Resulting iron (III) was detected as complex with xylenol orange (XO, Figure 3). The reaction rate of the EP stretched across two magnitudes of orders (Table 3). On the first view, there is no direct link between the activation rates and the efficiency of the compounds against Leishmania.
XO (125 µM) and butylated hydroxytoluene (4 mM) were dissolved in MeOH/H2O (9:1). FeSO4 (25 mM) in 2.5 M H2SO4 was prepared immediately before use (final concentration of 250 µM FeSO4 in the color reagent). An aliquot of 100 µL EP solution (final concentration of 100 µM) was transferred into a disposable cuvette (BRAND, Wertheim, Germany), and 1 mL of the color reagent was added. The EP that reacted slower were incubated for 0, 30, 60, and 90 min at 25 °C. The EP that reacted faster were measured every 5 s over 5 min. At these time points, the OD difference of the sample at 560 nm and 650 nm was determined using a MS1501 UV–VIS diode array spectrophotometer (Shimadzu, Kyoto, Japan). As reference, a mixture of MeOH/H2O (9:1) was used. The slope of the reaction rate was calculated using an extinction coefficient of 1.5 × 10^4 M^−1 cm^−1.
`c1ccc2c(c1)C1OOC2c2ccccc21` [AcEP]: the “Log10 (Formation Rate)” value turned out to be 3.90.

In the case of `CC(=O)OCC1OC(OC23OOC(OC4OC(COC(C)=O)C(OC(C)=O)C(OC(C)=O)C4OC(C)=O)(c4ccccc42)c2ccccc23)C(OC(C)=O)C(OC(C)=O)C1OC(C)=O` (stereo not shown) [BisGluAcEP], the “Log10 (Formation Rate)” value came to 3.83.

As for `CC(=O)OCC1OC(C23C=C(C(C)(C)C)C(C4OC(COC(C)=O)C(OC(C)=O)C(OC(C)=O)C4OC(C)=O)(OO2)c2ccccc23)C(OC(C)=O)C(OC(C)=O)C1OC(C)=O` (stereo not shown) [MB359EP], the “Log10 (Formation Rate)” value is 4.26.

In the case of `CC(=O)OCC1OC(OC23OOC(c4ccccc42)c2ccccc23)C(OC(C)=O)C(OC(C)=O)C1OC(C)=O` (stereo not shown) [MonoGluAcEP], the “Log10 (Formation Rate)” value is reported as 4.10.

In the case of `c1cncc(C23OOC(c4cccnc4)(c4ccccc42)c2ccccc23)c1` [mPyAcEP], the “Log10 (Formation Rate)” value is 2.85.

The experiment is the same for the next values; noted with them: AcEP and 250 µM FeSO4 in methanol/H2O (9:1), mean ± SD of 3 experiments.
In the case of `c1ccc2c(c1)C1OOC2c2ccccc21` [AcEP], the “XO/Fe^3+ Formation Rate” value turned out to be 8110 ± 4197 nmol/min.

As to `CC(=O)OCC1OC(OC23OOC(OC4OC(COC(C)=O)C(OC(C)=O)C(OC(C)=O)C4OC(C)=O)(c4ccccc42)c2ccccc23)C(OC(C)=O)C(OC(C)=O)C1OC(C)=O` (stereo not shown) [BisGluAcEP], the “XO/Fe^3+ Formation Rate” value was determined as 6800 ± 326 nmol/min.

Turning to `CC(=O)OCC1OC(C23C=C(C(C)(C)C)C(C4OC(COC(C)=O)C(OC(C)=O)C(OC(C)=O)C4OC(C)=O)(OO2)c2ccccc23)C(OC(C)=O)C(OC(C)=O)C1OC(C)=O` (stereo not shown) [MB359EP], the “XO/Fe^3+ Formation Rate” value is reported as 18,533 ± 1147 nmol/min.

Regarding `CC(=O)OCC1OC(OC23OOC(c4ccccc42)c2ccccc23)C(OC(C)=O)C(OC(C)=O)C1OC(C)=O` (stereo not shown) [MonoGluAcEP], the “XO/Fe^3+ Formation Rate” value is 12,697 ± 1500 nmol/min.

In the case of `c1cncc(C23OOC(c4cccnc4)(c4ccccc42)c2ccccc23)c1` [mPyAcEP], the “XO/Fe^3+ Formation Rate” value came to 708 ± 37 nmol/min.

The next experiment deals with J774 macrophages. As to the kind of experiment: Resazurin viability assay for J774 macrophages. The note with it: Mus musculus, J774, 48 h, read-out: J774 IC50. It counts as cell-based, murine. Here is the method:
(§1) The influence of AcEP and their analogs (Ac) on the viability of cells was tested in Leishmania tarentolae promastigotes (LtP) and J774 macrophages (Table 2). Based on the changes of viability of the respective cell lines at different compound concentrations, IC50 values were calculated. In Table 2, the IC50 values in both cell lines were compared for the individual compounds. From the ratio of IC50 values in J774 macrophages to IC50 values in LtP, an in vitro selectivity was calculated.
The murine macrophage cell line J774A.1 (ATCC, TIB-67™, Wesel, Germany) was cultivated up to passage 30 in DMEM (high glucose, 3.7 g/L NaHCO3, pH 7.4) with 25,000 IU/L penicillin, 25 mg/L streptomycin, and 10% FCS (heat-inactivated) in 50 mL TubeSpin bioreactors. J774 cells were incubated at 37 °C and 5% CO2 on a roller culture apparatus (5 rpm) in a Heraeus Cytoperm 8080 incubator (Thermo Electron Corp., Vienna, Austria). To determine the cell count, the cell suspension was re-suspended and diluted 1:2 with phosphate-buffered saline (PBS): 137 mM NaCl, 1.4 mM KH2PO4, 4.3 mM Na2HPO4, and 2.7 mM KCl, pH 7.4. After fixation of the cells by mixing the cell suspension 1:1 with a formaldehyde solution (2%, v/v), aliquots of the resulting suspension were transferred into a standard Neubauer chamber (VWR, Austria) and counted manually using a light microscope (Motic BA310, Vienna, Austria) at a magnification of 40 times. J774 cells were passaged twice a week in a ratio of 1:10.
DMEM containing 25,000 U/L penicillin, 25 mg/L streptomycin, 10% FCS, and 1 × 10^5 J774/mL was prepared. This mixture (200 µL) was distributed in cell culture-treated 96-well plates, except the control wells which contained only DMEM. The cells were incubated for 24 h at 37 °C and 5% CO2 to allow attachment. Afterwards the medium and non-adherent cells were removed by washing with PBS, and then, 200 µL DMEM was added to attached cells. Compounds dissolved in DMSO were added in starting concentrations of 25 µM (Pen) or 200 µM (AcEP/Ac), and then, serial dilutions were carried out resulting in the same concentration steps as listed for LtP. For each compound concentration triplicates on each plate were performed. […], 50 µL of resazurin solution (final concentration 20 µM) was added, and after 4 h of incubation, the fluorescence was measured at 560 nm excitation and 590 nm emission using a plate reader (Perkin Elmer EnSpire, Rodgau, Germany). All tests were repeated at least on four different weeks of cultivation.
(§2) Calculations were carried out using Microsoft Excel 2016 (Microsoft). The graphs were created using Origin 6.1 (OriginLab Corporation, Northampton, MA, USA). For all groups of experimental data, mean and standard deviation (SD) were calculated. Statistically significant differences between groups of sample data were identified by unpaired two-tailed Student’s t-test. Differences on the level of p < 0.05 were considered significant. The number of replicates is indicated at the respective figures/tables. The half-maximal inhibitory concentrations (IC50) were determined from non-linear concentration-response curves using a four-parameter logistic model and expressed as the mean ± SD.
A word on the IC50: it is the midpoint of a concentration-inhibition curve. Take `CC(C)(C)c1ccc2c(-c3ccccn3)c3ccccc3c(-c3ccccn3)c2c1` [pPyBuAc]: the 50% inhibitory concentration (IC50) was 107 ± 46 µM.

The experiment is the same for the next values; noted with them: Mus musculus, J774, 48 h, resazurin viability, endpoint 48 h, 10^5 J774 cells/mL, mean ± SD of 4–8 experiments; read-out: J774 IC50.
For the compound `c1ccc2c(c1)C1OOC2c2ccccc21` [AcEP], the IC50 is 1.21 ± 0.32 µM.

On to `CC(=O)OCC1OC(OC23OOC(OC4OC(COC(C)=O)C(OC(C)=O)C(OC(C)=O)C4OC(C)=O)(c4ccccc42)c2ccccc23)C(OC(C)=O)C(OC(C)=O)C1OC(C)=O` (stereo not shown) [BisGluAcEP], for which the IC50 is > 200 µM.

Consider `CC(=O)OCC1OC(C23C=C(C(C)(C)C)C(C4OC(COC(C)=O)C(OC(C)=O)C(OC(C)=O)C4OC(C)=O)(OO2)c2ccccc23)C(OC(C)=O)C(OC(C)=O)C1OC(C)=O` (stereo not shown) [MB359EP], for which the IC50 was > 200 µM.

Take `CC(=O)OCC1OC(OC23OOC(c4ccccc42)c2ccccc23)C(OC(C)=O)C(OC(C)=O)C1OC(C)=O` (stereo not shown) [MonoGluAcEP]: the half-maximal inhibitory concentration (IC50) was 153 ± 82.1 µM.

As for `c1cncc(C23OOC(c4cccnc4)(c4ccccc42)c2ccccc23)c1` [mPyAcEP], the IC50 is > 200 µM.

For a further experiment, the system named is Leishmania tarentolae promastigotes (LtP). Description: Resazurin viability assay for LtP. The note with it: Leishmania tarentolae, 48 h, read-out: LtP IC50. Format: cell-based. Here is the method: as §1
LtP (strain P10 from Jena Bioscience, Jena, Germany) were cultivated according to manufacturer instructions up to passage 50 in brain heart infusion medium (37 g/L, pH 7.4) and supplemented with 5 mg/L hemin and 25,000 IU/L penicillin and 25 mg/L streptomycin in 50 mL TubeSpin bioreactors (TPP, Trasadingen. Switzerland). LtP were grown at 27 °C in an incubator (Ehret, Emmendingen, Germany) and agitated at a frequency of 0.05 s^−1. […] For experiments, LtP were used one day after passage. The cell number was calculated by measuring the optical density (OD) of the culture at 600 nm with a U-1100 photometer (Hitachi Ltd., Tokyo, Japan) and applying the formula × 10^6 cells/mL = OD600nm × 0.969 × 124 × dilution factor [53].
Assay medium of YEM (20.7 g/L yeast extract powder, 1.2 g/L K2HPO4, 0.2 g/L KH2PO4, 2.9 g/L glucose, pH 7.4) and PBS (1:1, v/v), 25,000 U/L penicillin, 25 mg/L streptomycin, and 7.7 µM hemin was prepared. Aliquots of 200 µL of this medium and 2 × 10^6 LtP/mL (where required) were distributed in non-treated cell culture 96-well plates. Compounds (dissolved in DMSO) were added with starting concentrations of 25 µM (Pen) or 200 µM (AcEP/Ac), and then, serial dilutions were carried out resulting in a set of concentrations (25, 5, 1, 0.2, 0.04, and 0.008 µM) or (200, 40, 8, 1.6, 0.32, and 0.064 µM). For each compound concentration, at least triplicates on each plate were performed. After incubation of the plates at 27 °C for 48 h, 50 µL of resazurin solution (final concentration in wells 20 µM) was added to each well and after 4 h of incubation, the fluorescence was measured at 560 nm excitation and 590 nm emission using a plate reader (Perkin Elmer EnSpire, Rodgau, Germany) (adapted from). Combination assays for viability in the presence of PIH and NAC were performed the same way. […] All tests were repeated at least on four different weeks of cultivation.
as §2
For orientation: Alamar Blue is a resazurin reagent that responds to reducing activity.
On to `CC(C)(C)c1ccc2c(-c3ccccn3)c3ccccc3c(-c3ccccn3)c2c1` [pPyBuAc], for which the IC50 came out at 1.86 ± 1.1 µM.

The same experiment, now with this note: Leishmania tarentolae; resazurin viability, endpoint 48 h, 2 × 10^6 LtP/mL, mean ± SD of 4–8 experiments; read-out: LtP IC50.
For `c1ccc2c(c1)C1OOC2c2ccccc21` [AcEP], the IC50 came to 19.7 ± 14.1 µM.

With `CC(=O)OCC1OC(OC23OOC(OC4OC(COC(C)=O)C(OC(C)=O)C(OC(C)=O)C4OC(C)=O)(c4ccccc42)c2ccccc23)C(OC(C)=O)C(OC(C)=O)C1OC(C)=O` (stereo not shown) [BisGluAcEP], the IC50 is > 200 µM.

With `CC(=O)OCC1OC(C23C=C(C(C)(C)C)C(C4OC(COC(C)=O)C(OC(C)=O)C(OC(C)=O)C4OC(C)=O)(OO2)c2ccccc23)C(OC(C)=O)C(OC(C)=O)C1OC(C)=O` (stereo not shown) [MB359EP], the IC50 was > 200 µM.

In the case of `CC(=O)OCC1OC(OC23OOC(c4ccccc42)c2ccccc23)C(OC(C)=O)C(OC(C)=O)C1OC(C)=O` (stereo not shown) [MonoGluAcEP], the IC50 is 32.3 ± 23.4 µM.

`c1cncc(C23OOC(c4cccnc4)(c4ccccc42)c2ccccc23)c1` [mPyAcEP]: the IC50 was > 200 µM.

Staying with this experiment, now noted: ratio of IC50 in J774 macrophages to IC50 in LtP.
On to `c1ccc2c(c1)C1OOC2c2ccccc21` [AcEP], for which the “Selectivity IC50,J774/IC50,LtP” value was 0.06.

Take `CC(=O)OCC1OC(OC23OOC(c4ccccc42)c2ccccc23)C(OC(C)=O)C(OC(C)=O)C1OC(C)=O` (stereo not shown) [MonoGluAcEP]: the “Selectivity IC50,J774/IC50,LtP” value is 4.7.

Turning to `CC(C)(C)c1ccc2c(-c3ccccn3)c3ccccc3c(-c3ccccn3)c2c1` [pPyBuAc], the “Selectivity IC50,J774/IC50,LtP” value worked out at 57.

Still in this experiment, the particulars now being: ratio of IC50 of non-EP in LtP versus IC50 of respective EP.
As to `c1ccc2c(c1)C1OOC2c2ccccc21` [AcEP], the “IC50,non-EP/IC50,EP” value is reported as >10.1.

Regarding `CC(=O)OCC1OC(OC23OOC(c4ccccc42)c2ccccc23)C(OC(C)=O)C(OC(C)=O)C1OC(C)=O` (stereo not shown) [MonoGluAcEP], the “IC50,non-EP/IC50,EP” value is 4.89.

`c1cncc(C23OOC(c4cccnc4)(c4ccccc42)c2ccccc23)c1` [mPyAcEP]: the “IC50,non-EP/IC50,EP” value was <0.26.
